Laboratory results: paper PMC12055656, “Screening the Pandemic Response Box identifies novel ligands of the Staphylococcus aureus protein arginine kinase, McsB” (Molecular Biology Reports, 2025)

Columns and labels:
[1] = molecular target: T1, Staphylococcus aureus McsB (Staphylococcus aureus, UniProt Q2G0P6); experiment: biochemical; design: Thermal shift assay (SYPRO Orange) of purified His-tagged McsB, melting temperature shift versus DMSO; conditions: TSA, purified McsB
T1 construct: full length, His-tagged, pET-28a(+), expressed in E. coli BL21(DE3), Ni-NTA purified, ~42 kDa; tag kept (anti-His blot); E. coli lysate containing it used for CETSA
Experimental: The thermal shift assay (TSA) was performed by incubating 0.1 µg/µl of purified McsB in assay buffer (50 mM sodium phosphate, 300 mM NaCl, pH 7.4) with 10X SYPRO Orange fluorescent dye (ThermoFisher Scientific, USA) in a final reaction volume of 20 µl. For primary screening, compounds from the Pandemic Response Box were tested in a pooled format (10 compounds per pool at 10 µM each, 40 pools total). Each pool was incubated with the protein-dye mixture for 1 h at 4 °C, followed by thermal denaturation (25–99 °C, at a ramp rate of 0.5 °C/s). Fluorescence was monitored at 470/586 nm (excitation/emission) using a QuantStudio 5 Real-Time PCR System (Applied Biosystems, ThermoFisher Scientific, USA). Compounds from pools that induced a significant increase in McsB melting temperature (Tm) relative to a DMSO control– indicating engagement with the target protein– were further evaluated individually at 10 µM. All Tm values were determined from derivative curves (dF/dT) using Protein Thermal Shift Software v1.4 (ThermoFisher Scientific, USA) and represent the average of at least three independent replicates (n ≥ 3). Recombinant McsB was expressed in E. coli BL21(DE3) cells and purified using Ni-NTA resin. SDS-PAGE and western blot analysis confirmed the isolation of a ~ 42 kDa His-tagged protein (Fig. 1), consistent with previous reports. The Pandemic Response Box was divided into 40 pools containing 10 compounds each and screened for stabilizing ligands of the purified McsB using TSA. Three groups- B4, C3 and E3- produced the most pronounced increases in McsB melting temperature, elevating it from 54.5 °C to 63.1, 64.0 and 62.8 °C, respectively (Fig. 2A). To identify the active compounds, we screened the 30 individual compounds from these pools, and found nine compounds that increased McsB melting temperature by 0.5–1.2 °C (Fig. 2B and C). Of these, seven induced statistically significant shifts, with MMV1593539 yielding the greatest stabilization (ΔTm = 1.2 ± 0.1 °C, p < 0.0001).

[2] = molecular target: T1, Staphylococcus aureus McsB; design: CETSA, anti-His western blot, shift of McsB aggregation temperature; conditions: CETSA, aggregation temperature shift; binder

T1 sequence (Q2G0P6 whole entry): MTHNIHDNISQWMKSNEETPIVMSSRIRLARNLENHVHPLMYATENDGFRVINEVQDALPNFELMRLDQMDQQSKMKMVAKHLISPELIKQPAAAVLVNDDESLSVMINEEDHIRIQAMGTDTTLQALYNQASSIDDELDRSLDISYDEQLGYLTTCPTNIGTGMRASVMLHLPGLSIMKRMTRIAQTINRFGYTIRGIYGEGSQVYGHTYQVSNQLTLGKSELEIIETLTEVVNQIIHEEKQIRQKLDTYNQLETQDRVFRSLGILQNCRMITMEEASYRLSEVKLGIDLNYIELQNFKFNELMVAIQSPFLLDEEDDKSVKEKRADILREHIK

Compound	ΔTm at 10 µM [1] [°C]	ΔTagg [2] [°C]
CCCC(=O)OCCc1ccccc1 [MMV1578899, 2-phenylethyl butanoate 2-phenylethyl butanoate]	0.9 ± 0.412	0.78 ± 0.339
Nc1nc(-c2ccccc2)nc2[nH]nc(Nc3ccc(C(F)(F)F)cc3)c12 [MMV1633968, 6-phenyl-3-N-[4-(trifluoromethyl)phenyl]-1H-pyrazolo[3,4-d]pyrimidine-3,4-diamine]	0.78 ± 0.081	
Cn1cc(NC(=O)c2cc(NC(=O)c3ccc(/C=C/c4cnc5ccccc5c4)cc3)cn2C)cc1C(=O)NCCN1CCOCC1 [MMV1634391]	0.473 ± 0.374	
Nc1nc2c(Cc3cccnc3)c[nH]c2c(=O)[nH]1 [MMV1782355]	0.677 ± 0.098	0.63 ± 0.54
